Data reported in US20230041197A1, “TREATMENT OF A DISEASE OF THE GASTROINTESTINAL TRACT WITH AN IMMUNOMODULATOR” (Progenity, Inc., priority 2018, published 2023).
Counter-ions that a name gives are not always drawn.

Columns and labels:
[1] = Tacrolimus blood pharmacokinetics, oral vs intra-cecal ingestible device (Example 10); format: in vivo, Yorkshire-Cross farm swine
Description: The primary objective of this study was to compare the tissue, plasma, rectal sample, and GI content pharmacokinetics of tacrolimus through oral versus intra-cecal ingestible device delivery in normal Yorkshire-Cross farm swine.
No further randomization procedure was employed.
Animals in Group 1 received an ingestible device containing 0.8 mL of vehicle solution (80% alcohol, 20% HCO-60). Animals in Group 2 received orally […] liquid formulation of tacrolimus at 4 mg/0.8 mL per animal (Prograf: 5 mg/mL). Animals in Group 3 received intra-cecally an ingestible device containing tacrolimus at 1 mg in 0.8 mL per ingestible device. Animals in Group 4 received intra-cecally an ingestible device containing tacrolimus at 2 mg in 0.8 mL per ingestible device. Animals in Group 5 received intra-cecally an ingestible device containing tacrolimus at 4 mg in 0.8 mL per ingestible device. To control for potential confounding effects of the surgery, all groups fast on Day −11 at least 24 hr before being subjected to anesthesia followed by surgical placements of a cecal port by a veterinary surgeon at Day −10. All animals were fasted for at least 12 hr prior to dosing on Day 1. Animals were dosed via either intra-cecal dosing (IC) or oral dosing (PO) at Day 1 (between 6-8 p.m.). All animals resumed feeding at approximately 4 hours after dose (11-12 p.m. after dosing).
Approximately 200-400 mg of rectal content were collected, if available, with a fecal swab (Copan Diagnostics Nylon Flocked Dry Swabs, 502CS01). The fecal swab was pre-weighed and weighed after collection in the collection tube (Sterile Tube and Cap No Media, PFPM913S), and the sample weight was recorded. The fecal swab was broken via the breakpoint, and was stored in the collection tube, and immediately frozen at −70° C. […] Immediately following euthanasia, tissue was collected.
Group 2 animals were administered a single oral dose of tacrolimus at 4 mg/0.8 mL (0.08-mg/kg) (in the vehicle solution) on Day 1. Plasma, rectal content sample, tissue collection, GI content collection and related procedures/storage/shipments was the same as those employed in Group 1.
(§1) Group 3 animals were administered a single intra-cecal ingestible device containing tacrolimus at 1-mg/0.8 mL (0.02 mg/kg) (in the vehicle solution) on Day 1 by a veterinary surgeon. Plasma, rectal content sample, tissue collection, GI content collection and related procedures/storage/shipments was the same as those employed in Group 1. All samples were analyzed for tacrolimus.
Group 4 animals were administered a single intra-cecal ingestible device of tacrolimus at 2 mg/0.8 mL (0.04 mg/kg) (in sterile vehicle solution) on Day 1 by a veterinary surgeon.
as §1, with “Group 5” for “Group 3”, “animals are” for “animals were”, “at 4 mg/0.8” for “at 1-mg/0.8”, “mL (0.08” for “mL (0.02”, “procedures/storage/shipments were” for “procedures/storage/shipments was”

[2] = design: species or system Yorkshire-Cross farm swine; conditions: in vivo
Description: Tables 32 and 33 provide the tissue and plasma ratios of the animals in Groups 2-5.

[3] = Tacrolimus in GI tissue, luminal content and rectal content, oral vs intra-cecal device (Example 10); format: in vivo, Yorkshire-Cross farm swine
Description: Animals in Group 1 (Vehicle Control) were administered a single intra-cecal ingestible device containing 0.8 mL Vehicle solution (80% alcohol, 20% castor oil (HCO-60) on Day 1. On Day −10 the animals were anesthetized, and a veterinary surgeon surgically placed an intra-cecal port in each animal. On Day 1, each animal was placed into a sling then a single intra-cecal ingestible device containing 0.8 mL vehicle solution (80% alcohol, 20% castor oil (HCO-60)) is introduced by the veterinary surgeon into the cecum via the cecal port in each animal. Following ingestible device placement, the animals were removed from the slings and placed back into their pens with water. […]
Approximately 200-400 mg of rectal content were collected, if available, with a fecal swab (Copan Diagnostics Nylon Flocked Dry Swabs, 502CS01). The fecal swab was pre-weighed and weighed after collection in the collection tube (Sterile Tube and Cap No Media, PFPM913S), and the sample weight was recorded. […]
For tissue necropsy, small intestine fluid and cecal fluid were collected separately from all the animals into two separate square plastic bottles, and stored at −20° C. The length and diameter of the cecum and the colon was measured from one animal in each group and recorded for reference. […] All samples were weighed, and the tissue sample weights were recorded. […]

[4] = tested on: IL-6, GM-CSF, IL-15, IL-2, IL-12, IL-13, TNF-α, INF-γ
[5] = female, Yorkshire-Cross, pig, in vivo, 0.04 mg/kg

## C=CC[C@@H]1/C=C(\C)C[C@H](C)C[C@H](OC)[C@H]2O[C@@](O)(C(=O)C(=O)N3CCCC[C@H]3C(=O)O[C@H](/C(C)=C/[C@@H]3CC[C@@H](O)[C@H](OC)C3)[C@H](C)[C@@H](O)CC1=O)[C@H](C)C[C@@H]2OC [tacrolimus]
[1]; PO, 0.09 mg/kg
  Cmax: 3.531 ± 3.84 ng/mL
[1]; female, Yorkshire-Cross, pig, in vivo, 0.02 mg/kg
  concentration at 12 h: 0.746 ± 0.038 ng/mL
[1]; [5]
  Tmax: 1 h
  concentration at 12 h: 1.96 ± 0.491 ng/mL
[1]; female, Yorkshire-Cross, pig, in vivo, 0.09 mg/kg
  concentration at 12 h: 4.35 ± 0.516 ng/mL
[2]
  mean concentration in spiral colon lumen, transverse colon lumen and distal colon lumen: statistically higher
  mean concentration in spiral colon tissue and transverse colon tissue: statistically higher
[3]; IC capsule high and moderate dose vs PO
  tissue (spiral and transverse colon) and luminal content (spiral, transverse, and distal colon) concentrations: Significantly higher
[3]; intra-cecal vs oral, FIG. 76
  mean concentration in cecum tissue and proximate colon tissue: higher

## C[C@@H]1CCN(C(=O)CC#N)C[C@@H]1N(C)c1ncnc2[nH]ccc12 [tofacitinib citrate]
[4]; IC vs PO treatment groups
  GM-CSF levels in plasma or colon tissue: nor was there a significant difference
[4]; PO or IC, 1 h and 3 h post-treatment
  IL-6 expression in plasma: inhibition
[4]; all IC treated groups and high dose PO group (45 mg/kg), FIG. 112B
  inhibition of IL-6 expression in colon tissue: sustained through 24 h post-dose
[4]; low dose PO group (15 mg/kg), by 12 h post-dose
  IL-6 inhibition in colon tissue: Recovery from IL-6 inhibition
